In patent US20230103631A1, “PEPTIDES AS SELECTIVE GIP RECEPTOR AGONISTS” (Sanofi, priority 2020, published 2023):
*1 amine or outer side, *2 acyl side, *3 side chain or, on linkers, in order; H or OH if unused. Where a SMILES comes first, the peptide text is derived from it. Side-chain parts run from the residue outwards. [ ]: non-standard residue; d: D form. The star is where a group is joined. C20 diacid = O=C(O)CCCCCCCCCCCCCCCCCCC(=O)*; C18 diacid = O=C(O)CCCCCCCCCCCCCCCCC(=O)*; γGlu = O=C(O)[C@H](CCC(=O)[*:2])N[*:1]; NMeY = CN[C@@H](Cc1ccc(O)cc1)C(=O)O; AEEA = NCCOCCOCC(=O)O; Aib = CC(C)(N)C(=O)O

Assays:
[1] = molecular target: human GLP-1 receptor (hGLP-1R) (Homo sapiens, UniProt P43220); assay: cAMP HTRF assay, HEK-293 cell line over-expressing human GLP-1 receptor; assay type: cell-based; conditions: HEK-293, cAMP, 0% HSA
Method in brief: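 Thawed HEK-293 cells over-expressing human GLP-1R (5000 cells/well) in HBSS/20 mM HEPES buffer, with 0.1% HSA where stated, incubated with compound for 30 min at room temperature. Generated cAMP quantified by HTRF.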

[2] = Dynamic light scattering (DLS) for the assessment of physical stability; assay type: physicochemical; conditions: DLS buffer system A
Source text: A monochromatic and coherent light beam (laser) is used to illuminate the liquid sample. Dynamic Light Scattering (DLS) measures light scattered from particles (1 nm≤radius≤1 μm) that undergo Brownian motion. This motion is induced by collisions between the particles and solvent molecules, that themselves are moving due to their thermal energy. The diffusional motion of the particles results in temporal fluctuations of the scattered light (R. Pecora, Dynamic Light Scattering: Applications of Photon Correlation Spectroscopy, Plenum Press, 1985).
The scattered light intensity fluctuations are recorded and transformed into an autocorrelation function. By fitting the autocorrelation curve to an exponential function, the diffusion coefficient D of the particles in solution can be derived. The diffusion coefficient is then used to calculate the hydrodynamic radius Rh (or apparent Stokes radius) through the Stokes-Einstein equation assuming spherical particles. This calculation is defined in ISO 13321 and ISO 22412 (International Standard ISO13321 Methods for Determination of Particle Size Distribution Part 8: Photon Correlation Spectroscopy, International Organisation for Standardisation (ISO) 1996; International Standard ISO22412 Particle Size Analysis—Dynamic Light Scattering, International Organisation for Standardisation, 2008).
In case of polydisperse samples, the autocorrelation function is the sum of the exponential decays corresponding to each of the species. The temporal fluctuations of the scattered light can then be used to determine the size distribution profile of the particle fraction or family. The first order result is an intensity distribution of scattered light as a function of the particle size. The intensity distribution is naturally weighted according to the scattering intensity of each particle fraction or family. For biological materials or polymers, the particle scattering intensity is proportional to the square of the molecular weight. Thus, small amount of aggregates/agglomerates or presence or a larger particle species can dominate the intensity distribution. However, this distribution can be used as a sensitive detector for the presence of large material in the sample.
The DLS technique produces distributions with inherent peak broadening. The polydispersity index % Pd is a measure of the width of the particle size distribution and is calculated by standard methods described in ISO13321 and ISO22412 [International Standard ISO13321 Methods for Determination of Particle Size Distribution Part 8: Photon Correlation Spectroscopy, International Organisation for Standardisation (ISO) 1996; International Standard ISO22412 Particle Size Analysis—Dynamic Light Scattering, International Organisation for Standardisation (ISO) 2008].
Solutions from solid samples were prepared in buffer systems (see below) with a target concentration of 300 μM compound based on the previously determined % purity.
DLS buffer system A) 20 mM phosphate buffer pH 7.4
DLS buffer system B) 8 mM phosphate buffer pH 7.4, 14 mg/ml propylene glycol, 5.5 mg/ml phenol
DLS buffer system C) 100 mM phosphate buffer pH 7.4, 2.7 mg/ml m-cresol Solutions were filtered through 0.22 μm pore size and filled into sterilized glass containers under laminar flow conditions. For every peptide solution, the apparent hydrodynamic radius (Rh), the corresponding Scattering Intensity (I), and the Mass Contribution (M) were determined as an average over 3-6 replicates from the intensity distribution of the scattered light averaging only high-quality measurements. Relative standard deviations (RSD) for these parameters were calculated from the same number of replicates. […]

physchem = assay type: physicochemical; conditions: for Soluble amount: 24 h, pH 7.4; for solubility at 24 h: pH 7.4, Soluble amount
Method in brief: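 Peptide at 10 mg/ml (purity-corrected) in 100 mM phosphate pH 7.4, alone or with 2.7 mg/ml m-cresol; 1 h gentle agitation, then 24 h at 5 °C. Supernatant after 15 min at 2500 RCF quantified by UHPLC-UV against reference peptide, adjusted for extinction coefficients.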

[3] = Chemical stability assessment (relative purity loss by UHPLC-UV); assay type: physicochemical; conditions: Chemical stability buffer system A: 20 mM phosphate buffer pH 7.4
Procedure: Purity of a peptide batch was determined through UHPLC/MS prior to chemical stability measurement. The target concentration was […] pure compound. Solutions from solid samples were prepared in the following buffer systems with a concentration of ˜300 μM compound based on the previously determined % purity:
Chemical stability buffer system A) 20 mM phosphate buffer pH 7.4,
Chemical stability buffer system B) 8 mM phosphate buffer pH 7.4, 14 mg/ml propylene glycol, 5.5 mg/ml phenol
Chemical stability buffer system C) 100 mM phosphate buffer pH 7.4, 2.7 mg/ml m-cresol
Prepared solutions were filtered through […] pore size and filled into sterilized glass containers under laminar flow conditions.
Glass containers were stored for 28 days at 5 and 40° C. After this time, the samples were centrifuged for 15 min at 2500 RCF. Then 1.5 μl of the undiluted supernatant were analysed with UHPLC-UV.
The chemical stability was rated through the relative loss of purity calculated by the equation:
[(purity after 28 days at 5° C.)−(purity after 28 days at 40° C.)]/(purity after 28 days at 5° C.)]*100%
The purity is calculated as
[(peak area peptide)/(total peak area)]*100%
The analytical methods used were Analytical UHPLC Method B or C.
Peptide samples were prepared in Chemical stability buffer system A or B and stability was assessed as described in Methods.

Sequence of human GLP-1 receptor (hGLP-1R) (P43220 24-463): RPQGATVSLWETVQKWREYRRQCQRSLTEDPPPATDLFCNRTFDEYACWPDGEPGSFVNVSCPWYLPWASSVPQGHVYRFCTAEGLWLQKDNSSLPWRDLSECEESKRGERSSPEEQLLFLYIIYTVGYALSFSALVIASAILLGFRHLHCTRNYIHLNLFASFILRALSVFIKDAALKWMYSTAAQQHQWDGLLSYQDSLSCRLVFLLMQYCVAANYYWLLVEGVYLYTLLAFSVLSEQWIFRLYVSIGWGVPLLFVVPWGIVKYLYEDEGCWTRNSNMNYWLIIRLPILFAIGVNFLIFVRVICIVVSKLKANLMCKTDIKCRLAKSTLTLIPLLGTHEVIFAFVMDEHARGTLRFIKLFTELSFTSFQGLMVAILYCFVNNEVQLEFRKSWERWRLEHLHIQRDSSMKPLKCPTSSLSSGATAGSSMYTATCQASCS

SMILES: CC[C@H](C)[C@H](NC(=O)[C@H](Cc1ccccc1)NC(=O)[C@H](CCC(=O)O)NC(=O)[C@H](CCC(=O)O)NC(=O)[C@H](CCC(N)=O)NC(=O)[C@H](Cc1c[nH]cn1)NC(=O)[C@@H](NC(=O)[C@H](CCCNC(=N)N)NC(=O)[C@H](CC(=O)O)NC(=O)[C@H](CCCCNC(=O)COCCOCCNC(=O)COCCOCCNC(=O)CC[C@H](NC(=O)CCCCCCCCCCCCCCCCCCC(=O)O)C(=O)O)NC(=O)C(C)(C)NC(=O)[C@@H](NC(=O)[C@H](CO)NC(=O)[C@H](CC(C)C)NC(=O)[C@H](CC(=O)O)NC(=O)[C@H](CO)NC(=O)[C@@H](NC(=O)[C@H](Cc1ccccc1)NC(=O)[C@@H](NC(=O)CNC(=O)[C@H](CCC(=O)O)NC(=O)C(C)(C)NC(=O)[C@@H](N)Cc1ccc(O)cc1)[C@@H](C)O)[C@@H](C)CC)[C@@H](C)CC)[C@@H](C)CC)C(=O)N[C@@H](CCC(=O)O)C(=O)N[C@@H](Cc1c[nH]c2ccccc12)C(=O)N[C@@H](CC(C)C)C(=O)N[C@@H](CC(C)C)C(=O)N[C@@H](C)C(=O)N[C@@H](CCC(N)=O)C(=O)NCC(=O)N1CCC[C@H]1C(=O)N[C@@H](CO)C(=O)N[C@@H](CO)C(=O)NCC(=O)N[C@@H](C)C(=O)N1CCC[C@H]1C(=O)N1CCC[C@H]1C(=O)N1CCC[C@H]1C(=O)N[C@@H](CO)C(N)=O [SEQ ID NO: 10, H2N-Y-Aib-E-G-T-F-I-S-D-I-S-I-Aib-K[{AEEA}2-gGlu-C20OH]-DRIHQEEFIEWILAQGPSSGAPPPS-NH2] (H-Y[Aib]EGTFISDLSI[Aib]K([AEEA-AEEA-γGlu-C20 diacid])DRIHQEEFIEWLLAQGPSSGAPPPS-NH2)
- EC50 [1]: > 10 nM
- I and SD (Scattering Intensity) ([2]; 0 weeks): 60 ± 3%
- M and SD (Mass Contribution) ([2]; 0 weeks): 100 ± 0%
- apparent Rh and SD ([2]; 0 weeks): 1.97 ± 0.03 nm
- I and SD (Scattering Intensity) ([2]; 4 weeks storage at 40° C.): 75 ± 3%
- M and SD (Mass Contribution) ([2]; 4 weeks storage at 40° C.): 100 ± 0%
- apparent Rh and SD ([2]; 4 weeks storage at 40° C.): 1.91 ± 0.04 nm
- Soluble amount (physchem): >8.1 mg/mL
- solubility at 24 h (physchem): > 8000 µg/mL
- Relative purity loss over 28 days at 40° C. [3]: 3.3%

SMILES: CC[C@H](C)[C@H](NC(=O)[C@H](CCCNC(=N)N)NC(=O)[C@H](CC(=O)O)NC(=O)[C@H](CCCCNC(=O)COCCOCCNC(=O)COCCOCCNC(=O)CC[C@H](NC(=O)CCCCCCCCCCCCCCCCCCC(=O)O)C(=O)O)NC(=O)C(C)(C)NC(=O)[C@@H](NC(=O)[C@H](CO)NC(=O)[C@H](CC(C)C)NC(=O)[C@H](CC(=O)O)NC(=O)[C@H](CO)NC(=O)[C@@H](NC(=O)[C@H](Cc1ccccc1)NC(=O)[C@@H](NC(=O)CNC(=O)[C@H](CCC(=O)O)NC(=O)C(C)(C)NC(=O)[C@@H](N)Cc1ccc(O)cc1)[C@@H](C)O)[C@@H](C)CC)[C@@H](C)CC)C(=O)N[C@@H](Cc1c[nH]cn1)C(=O)N[C@@H](CCC(N)=O)C(=O)NC(C)(C)C(=O)N[C@@H](CCC(=O)O)C(=O)N[C@@H](Cc1ccccc1)C(=O)N[C@H](C(=O)N[C@@H](CCC(=O)O)C(=O)N[C@@H](Cc1c[nH]c2ccccc12)C(=O)N[C@@H](CC(C)C)C(=O)N[C@@H](CC(C)C)C(=O)N[C@@H](C)C(=O)N[C@@H](CCC(N)=O)C(=O)NCC(=O)N1CCC[C@H]1C(=O)N[C@@H](CO)C(=O)N[C@@H](CO)C(=O)NCC(=O)N[C@@H](C)C(=O)N1CCC[C@H]1C(=O)N1CCC[C@H]1C(=O)N1CCC[C@H]1C(=O)N[C@@H](CO)C(N)=O)[C@@H](C)CC [SEQ ID NO: 7, H2N-Y-Aib-E-G-T-F-I-S-D-I-S-I-Aib-K[{AEEA}2-gGlu-C20OH]-D-R-I-H-Q-Aib-E-F-I-E-W-I-L-A-Q-G-P-S-S-G-A-P-P-P-S-NH2] (H-Y[Aib]EGTFISDLSI[Aib]K([AEEA-AEEA-γGlu-C20 diacid])DRIHQ[Aib]EFIEWLLAQGPSSGAPPPS-NH2)
- EC50 [1]: > 10 nM
- I and SD (Scattering Intensity) ([2]; 0 weeks): 85 ± 2%
- M and SD (Mass Contribution) ([2]; 0 weeks): 100 ± 0%
- apparent Rh and SD ([2]; 0 weeks): 2.06 ± 0.03 nm
- I and SD (Scattering Intensity) ([2]; 4 weeks storage at 40° C.): 73 ± 4%
- M and SD (Mass Contribution) ([2]; 4 weeks storage at 40° C.): 100 ± 0%
- apparent Rh and SD ([2]; 4 weeks storage at 40° C.): 2.04 ± 0.02 nm
- Soluble amount (physchem): >5.9 mg/mL
- solubility at 24 h (physchem): > 6900 µg/mL
- Relative purity loss over 28 days at 40° C. [3]: 4.5%

SMILES: CC[C@H](C)[C@H](NC(=O)[C@H](CCCNC(=N)N)NC(=O)[C@H](CC(=O)O)NC(=O)[C@H](CCCCNC(=O)COCCOCCNC(=O)COCCOCCNC(=O)CC[C@H](NC(=O)CCCCCCCCCCCCCCCCC(=O)O)C(=O)O)NC(=O)C(C)(C)NC(=O)[C@@H](NC(=O)[C@H](CO)NC(=O)[C@H](CC(C)C)NC(=O)[C@H](CC(=O)O)NC(=O)[C@H](CO)NC(=O)[C@@H](NC(=O)[C@H](Cc1ccccc1)NC(=O)[C@@H](NC(=O)CNC(=O)[C@H](CCC(=O)O)NC(=O)C(C)(C)NC(=O)[C@H](Cc1ccc(O)cc1)NC)[C@@H](C)O)[C@@H](C)CC)[C@@H](C)CC)C(=O)N[C@@H](Cc1c[nH]cn1)C(=O)N[C@@H](CCC(N)=O)C(=O)NC(C)(C)C(=O)N[C@@H](CCC(=O)O)C(=O)N[C@@H](Cc1ccccc1)C(=O)N[C@H](C(=O)N[C@@H](CCC(=O)O)C(=O)N[C@@H](Cc1c[nH]c2ccccc12)C(=O)N[C@@H](CC(C)C)C(=O)N[C@@H](CC(C)C)C(=O)N[C@@H](C)C(=O)N[C@@H](CCC(N)=O)C(=O)NCC(=O)N1CCC[C@H]1C(=O)N[C@@H](CO)C(=O)N[C@@H](CO)C(=O)NCC(=O)N[C@@H](C)C(=O)N1CCC[C@H]1C(=O)N1CCC[C@H]1C(=O)N1CCC[C@H]1C(=O)N[C@@H](CO)C(N)=O)[C@@H](C)CC [SEQ ID NO: 8, MeHN-Y-Aib-E-G-T-F-I-S-D-I-S-I-Aib-K[{AEEA}2-gGlu-C180H]-D-R-I-H-Q-Aib-E-F--E-W-I-L-A-Q-G-P-S-S-G-A-P-P-P-S-NH2] (H-[NMeY][Aib]EGTFISDLSI[Aib]K([AEEA-AEEA-γGlu-C18 diacid])DRIHQ[Aib]EFIEWLLAQGPSSGAPPPS-NH2)
- EC50 [1]: > 10 nM
- I and SD (Scattering Intensity) ([2]; 0 weeks): 73 ± 3%
- M and SD (Mass Contribution) ([2]; 0 weeks): 100 ± 0%
- apparent Rh and SD ([2]; 0 weeks): 2.06 ± 0.03 nm
- I and SD (Scattering Intensity) ([2]; 4 weeks storage at 40° C.): 78 ± 9%
- M and SD (Mass Contribution) ([2]; 4 weeks storage at 40° C.): 100 ± 0%
- apparent Rh and SD ([2]; 4 weeks storage at 40° C.): 2.00 ± 0.07 nm
- Soluble amount (physchem): >6.4 mg/mL
- solubility at 24 h (physchem): > 7500 µg/mL
- Relative purity loss over 28 days at 40° C. [3]: 4.7%
